Earlier results, collected in PMC7449315 (Journal for Immunotherapy of Cancer, 2020).

Conditions: early phase I studies, single agent; ref 28 30 31; cited from earlier work

Row | SMILES | best overall response
1 | Cn1cc(C[C@@H](N)C(=O)O)c2ccccc21 [indoximod] | stable disease
2 | O[C@H](C[C@H]1c2c(F)cccc2-c2cncn21)[C@H]1CC[C@H](O)CC1 [navoximod] | stable disease
3 | NS(=O)(=O)NCCNc1nonc1C(=NO)Nc1ccc(F)c(Br)c1 [epacadostat] | stable disease
